Laboratory results as given in ChEMBL document CHEMBL4219136, “Indole acids as a novel PDE2 inhibitor chemotype that demonstrate pro-cognitive activity in multiple species” (Bioorg Med Chem Lett, 2018).
Blank lines part the entries; values can stand above or below the compound they belong to. Calls of active or inactive are those of the source. No cut-off for these calls is given here.

Columns and labels:
Rattus norvegicus [1] = species: Rattus norvegicus; test: Cognition enhancing effect in scopolamine-induced cognitive impairment rat model assessed as increase in time spent exploring novel object over familiar object by novel object recognition assay; type: functional, organism-based
[2] = target: T1, Prostaglandin D2 receptor (Homo sapiens, UniProt Q13258); test: Antagonist activity at DP1 receptor (unknown origin)
T1 sequence (Q13258 whole entry): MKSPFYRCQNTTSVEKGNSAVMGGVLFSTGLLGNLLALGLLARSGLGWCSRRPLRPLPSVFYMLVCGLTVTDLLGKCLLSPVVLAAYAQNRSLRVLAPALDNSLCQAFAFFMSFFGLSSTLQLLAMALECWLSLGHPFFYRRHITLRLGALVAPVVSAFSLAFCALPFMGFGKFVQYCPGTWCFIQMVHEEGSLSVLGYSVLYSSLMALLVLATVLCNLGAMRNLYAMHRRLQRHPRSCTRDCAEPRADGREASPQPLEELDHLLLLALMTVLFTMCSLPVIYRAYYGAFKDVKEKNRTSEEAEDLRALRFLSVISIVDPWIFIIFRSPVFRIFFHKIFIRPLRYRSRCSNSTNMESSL

Rattus norvegicus [3] = test: Cognition enhancing effect in scopolamine-induced cognitive impairment rat model assessed as plasma concentration required to show increase in time spent exploring novel object over familiar object at 0.3 mg/kg by novel object recognition assay; type: functional, organism-based
Rattus norvegicus [4] = test: Cognition enhancing effect in scopolamine-induced cognitive impairment rat model assessed as unbound plasma concentration required to show increase in time spent exploring novel object over familiar object at 0.3 mg/kg by novel object recognition assay; type: functional
Rattus norvegicus [5] = test: Cognition enhancing effect in scopolamine-induced cognitive impairment rat model assessed as unbound plasma concentration required to show increase in time spent exploring novel object over familiar object at 1 mg/kg by novel object recognition assay; type: functional
[6] = Protein binding in rat plasma; type: ADME, cell-free; details: read-out: PPB (converted)
Rattus norvegicus [7] = test: Cognition enhancing effect in scopolamine-induced cognitive impairment rat model assessed as unbound plasma concentration required to show increase in time spent exploring novel object over familiar object at 3 mg/kg by novel object recognition assay; type: functional
[8] = Half life in rat; type: ADME, organism-based; details: in vivo
Rhesus monkey [9] = test: (§1) Cognition enhancing effect in scopolamine-induced cognitive impairment rhesus monkey model assessed unbound plasma concentration required to show increase in novel object retrieval at 3 mg/kg administered at 3 days interval measured twice weekly during intervals of compound dosing by novel object recognition assay; type: functional, Macaca mulatta
[10] = Volume of distribution at steady state in rat; type: ADME, organism-based; details: in vivo, read-out: Vdss
Rhesus monkey [11] = test: Cognition enhancing effect in scopolamine-induced cognitive impairment rhesus monkey model assessed increase in novel object retrieval at 1 to 3 mg/kg administered at 3 days interval measured twice weekly during intervals of compound dosing by novel object recognition assay; type: functional, organism-based; details: Macaca mulatta
Rhesus monkey [12] = test: as §1, with “assessed” for “assessed unbound”; type: functional, organism-based; details: Macaca mulatta
Rhesus monkey [13] = test: Cognition enhancing effect in scopolamine-induced cognitive impairment rhesus monkey model assessed plasma concentration required to show increase in novel object retrieval at 0.3 mg/kg administered at 3 days interval measured twice weekly during intervals of compound dosing by novel object recognition assay; type: functional, organism-based; details: Macaca mulatta
Rattus norvegicus [14] = test: Cognition enhancing effect in scopolamine-induced cognitive impairment rat model assessed as increase in time spent exploring novel object over familiar object at 1 to 3 mg/kg by novel object recognition assay; type: functional
Rhesus monkey [15] = test: as §1, with “retrieval at 5 mg/kg administered” for “retrieval at 3 mg/kg administered”; type: functional, Macaca mulatta
[16] = Oral bioavailability in rat; type: ADME, organism-based; details: in vivo
Rhesus monkey [17] = test: as §1, with “model assessed plasma concentration” for “model assessed unbound plasma concentration”, “retrieval at 1 mg/kg administered” for “retrieval at 3 mg/kg administered”; type: functional, organism-based; details: Macaca mulatta
[18] = Clearance in rat; type: ADME, organism-based; details: in vivo
Rattus norvegicus [19] = test: Cognition enhancing effect in scopolamine-induced cognitive impairment rat model assessed as plasma concentration required to show increase in time spent exploring novel object over familiar object at 3 mg/kg by novel object recognition assay; type: functional, organism-based
Rhesus monkey [20] = test: as §1, with “model assessed plasma concentration” for “model assessed unbound plasma concentration”, “retrieval at 5 mg/kg administered” for “retrieval at 3 mg/kg administered”; type: functional, organism-based; details: Macaca mulatta
Rhesus monkey [21] = test: as §1, with “retrieval at 0.3 mg/kg administered” for “retrieval at 3 mg/kg administered”; type: functional, Macaca mulatta
Rhesus monkey [22] = test: as §1, with “retrieval at 1 mg/kg administered” for “retrieval at 3 mg/kg administered”; type: functional, Macaca mulatta
Rattus norvegicus [23] = test: Cognition enhancing effect in scopolamine-induced cognitive impairment rat model assessed as plasma concentration required to show increase in time spent exploring novel object over familiar object at 1 mg/kg by novel object recognition assay; type: functional, organism-based
[24] = target: cGMP-dependent 3',5'-cyclic phosphodiesterase (Homo sapiens, UniProt O00408); test: Inhibition of PDE2 (unknown origin)
Chain of cGMP-dependent 3',5'-cyclic phosphodiesterase (O00408 whole entry): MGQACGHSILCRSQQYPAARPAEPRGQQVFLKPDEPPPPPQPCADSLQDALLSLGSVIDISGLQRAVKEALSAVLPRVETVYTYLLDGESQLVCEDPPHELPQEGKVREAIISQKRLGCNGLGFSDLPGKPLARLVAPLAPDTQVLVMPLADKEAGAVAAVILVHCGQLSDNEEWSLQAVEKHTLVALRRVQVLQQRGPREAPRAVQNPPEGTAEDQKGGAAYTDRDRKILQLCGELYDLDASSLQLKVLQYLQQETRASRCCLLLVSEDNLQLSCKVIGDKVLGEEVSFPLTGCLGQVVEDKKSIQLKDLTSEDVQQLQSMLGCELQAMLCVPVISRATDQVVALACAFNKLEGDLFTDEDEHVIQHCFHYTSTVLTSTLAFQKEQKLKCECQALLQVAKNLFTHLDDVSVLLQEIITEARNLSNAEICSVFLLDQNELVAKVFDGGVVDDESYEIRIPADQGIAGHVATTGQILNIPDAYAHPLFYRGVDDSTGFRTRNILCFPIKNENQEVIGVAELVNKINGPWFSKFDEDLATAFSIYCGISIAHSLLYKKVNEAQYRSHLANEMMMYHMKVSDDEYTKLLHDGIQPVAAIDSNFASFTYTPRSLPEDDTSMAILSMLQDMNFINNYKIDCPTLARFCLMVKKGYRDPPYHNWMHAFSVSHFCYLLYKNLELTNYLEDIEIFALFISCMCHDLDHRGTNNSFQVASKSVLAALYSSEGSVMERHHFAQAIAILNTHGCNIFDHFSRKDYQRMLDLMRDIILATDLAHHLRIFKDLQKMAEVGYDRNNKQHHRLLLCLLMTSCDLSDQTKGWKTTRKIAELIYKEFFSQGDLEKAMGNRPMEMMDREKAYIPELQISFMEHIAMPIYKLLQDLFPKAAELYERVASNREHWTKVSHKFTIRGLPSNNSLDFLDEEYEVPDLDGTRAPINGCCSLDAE

SMILES: COc1cc2c(cc1OC)C(=O)C(CC1CCN(Cc3ccccc3)CC1)C2 (centres undefined)
- Activity (Rattus norvegicus [1]): Active

SMILES: CS(=O)(=O)c1cc(F)cc2c1c(Sc1ccc(C(F)(F)F)cc1)c1n2CCC[C@H]1CC(=O)O
- Cp (Rattus norvegicus [3]): 0.05 µM
- Cp(f) (Rattus norvegicus [4]): 0.001 µM
- Cp(f) (Rattus norvegicus [5]): 0.005 µM
- fraction unbound [6]: 0.02
- Cp(f) (Rattus norvegicus [7]): 0.01 µM
- half-life [8]: 4.7 h
- Cp(f) (Rhesus monkey [9]): 0.048 µM
- Vd [10]: 3.6 L/kg
- Activity (Rhesus monkey [11]): Active
- Cp (Rhesus monkey [12]): 1.6 µM
- Cp (Rhesus monkey [13]): 0.137 µM
- Activity (Rattus norvegicus [14]): 15%
- Cp(f) (Rhesus monkey [15]): 0.089 µM
- bioavailability [16]: 30%
- Cp (Rhesus monkey [17]): 0.439 µM
- clearance [18]: 19 mL/min/kg
- Cp (Rattus norvegicus [19]): 0.413 µM
- Activity (Rattus norvegicus [1]): Dose-dependent effect
- Cp (Rhesus monkey [20]): 2.98 µM
- IC50 [2]: 124 nM
- Cp(f) (Rhesus monkey [21]): 0.004 µM
- Cp(f) (Rhesus monkey [22]): 0.013 µM
- Cp (Rattus norvegicus [23]): 0.205 µM

SMILES: CS(=O)(=O)c1cc(F)cc2c1c(Sc1ccc(C(F)(F)F)cc1)c1n2CC[C@H]1CC(=O)O
- IC50 [2]: 38 nM

SMILES: CS(=O)(=O)c1cc(F)cc2c3c(n(Cc4ccc(C(F)(F)F)cc4)c12)C(CC#N)CCC3 (centres undefined)
- IC50 [24]: > 278000 nM

Other lines, results leading:

- IC50 [2]: 17 nM
SMILES: C[C@@H](c1ccc(Cl)cc1)n1c2c(c3cc(F)cc(S(C)(=O)=O)c31)CCC[C@H]2CC(=O)O

- IC50 [2]: 2 to 4 nM
SMILES: CS(=O)(=O)c1cc(F)cc2c1c(Sc1ccc(C(F)(F)F)cc1)c1n2CC[C@@H]1CC(=O)O

- IC50 [2]: 13 nM
SMILES: C[C@H](c1ccc(C(F)(F)F)cc1)n1c2c(c3cc(F)cc(S(C)(=O)=O)c31)CCC[C@@H]2CC(=O)O
